According to ChEMBL document CHEMBL4680352, “Rational design and synthesis of 6-aryl-6H-benzo[c]chromenes as non-steroidal progesterone receptor antagonists for use against cancers” (Bioorg Med Chem, 2021):
pIC50: −log10 of the molar value.

Tested on: MCF-10A
Assay: Cytotoxicity against human MCF-10A cells assessed as inhibition of cell viability after 72 hrs by CCK-8 assay
Type: cell-based
Conditions: not given
In the case of COc1ccc2c(c1)-c1ccccc1OC2c1ccccc1OC (stereo not given), the pIC50 was 4.21.
COc1ccc2c(c1)-c1ccccc1OC2c1ccccc1C (stereo not given) gave a pIC50 of 4.35.
In the case of COc1ccc2c(c1)-c1ccccc1OC2c1cccc(OC)c1OC (stereo not given), the pIC50 was 4.32.
COc1cccc(C2Oc3ccccc3-c3cc(OC)c(OC)cc32)c1 (stereo not given) gave a pIC50 of 4.22.
With COc1cccc(C2Oc3ccccc3-c3cc(OC)ccc32)c1 (stereo not given) the pIC50 was 4.23.

Tested on: MDA-MB-231
Assay: Antiproliferative activity against human MDA-MB-231 cells assessed as inhibition of cell viability at 20 uM after 72 hrs by CCK-8 assay relative to control
Type: functional
Conditions: not given
For COc1ccc2c(c1)-c1ccccc1OC2c1cccs1 (stereo not given), the inhibition at 20 µM was 38.6%.
In the case of c1ccc2c(c1)OC(c1cccc3ccccc13)c1ccccc1-2 (stereo not given), the inhibition at 20 µM was 30.6%.
In the case of COc1ccc(C2Oc3ccccc3-c3ccc(OC)cc32)cc1 (stereo not given), the inhibition at 20 µM was 43.2%.
With COc1ccc2c(c1)-c1ccccc1OC2c1ccc(SC)cc1 (stereo not given) the inhibition at 20 µM was 35.3%.
With COc1ccc(C2Oc3cc(C)ccc3-c3ccccc32)cc1 (stereo not given) the inhibition at 20 µM was 25.6%.
Work on COc1ccc(C2Oc3ccc(Br)cc3-c3ccccc32)cc1 (stereo not given) yielded an inhibition at 20 µM of 36.1%.
In the case of COc1ccc2c(c1)-c1ccccc1OC2c1ccccc1 (stereo not given), the inhibition at 20 µM was 30.6%.
COc1ccc2c(c1)-c1ccccc1OC2c1cccc(C)c1 (stereo not given) gave an inhibition at 20 µM of 24.9%.
Compound COc1ccc2c(c1)-c1ccccc1OC2c1ccccc1C (stereo not given) has an inhibition at 20 µM of 59.8%.
Work on COc1cccc(C2Oc3ccccc3-c3cc(OC)ccc32)c1 (stereo not given) yielded an inhibition at 20 µM of 66.1%.

Tested on: MCF7
Assay: Antiproliferative activity against human MCF7 cells assessed as inhibition of cell viability after 72 hrs by CCK-8 assay
Type: functional, cell-based
Conditions: MCF7, 72 h
COc1ccc2c(c1)-c1ccccc1OC2c1ccccc1OC (stereo not given) showed a pIC50 of 5.05.
For COc1ccc2c(c1)-c1ccccc1OC2c1ccccc1C (stereo not given), the pIC50 was 5.03.
In the case of COc1ccc2c(c1)-c1ccccc1OC2c1cccc(OC)c1OC (stereo not given), the pIC50 was 4.82.
For COc1cccc(C2Oc3ccccc3-c3cc(OC)c(OC)cc32)c1 (stereo not given), the pIC50 was 5.02.
Compound COc1cccc(C2Oc3ccccc3-c3cc(OC)ccc32)c1 (stereo not given) has a pIC50 of 5.00.

Tested on: MDA-MB-231
Assay: Antiproliferative activity against human MDA-MB-231 cells assessed as inhibition of cell viability after 72 hrs by CCK-8 assay
Type: functional, cell-based
Conditions: MDA-MB-231, 72 h
For COc1ccc2c(c1)-c1ccccc1OC2c1ccccc1OC (stereo not given), the pIC50 was 4.82.
Compound COc1ccc2c(c1)-c1ccccc1OC2c1ccccc1C (stereo not given) has a pIC50 of 5.13.
With COc1ccc2c(c1)-c1ccccc1OC2c1cccc(OC)c1OC (stereo not given) the pIC50 was 4.65.
Compound COc1cccc(C2Oc3ccccc3-c3cc(OC)c(OC)cc32)c1 (stereo not given) has a pIC50 of 4.86.
COc1cccc(C2Oc3ccccc3-c3cc(OC)ccc32)c1 (stereo not given) gave a pIC50 of 4.73.

Tested on: PC-3
Assay: Antiproliferative activity against human PC-3 cells assessed as inhibition of cell viability at 20 uM after 72 hrs by CCK-8 assay relative to control
Type: functional
Conditions: not given
Compound COc1ccc2c(c1)-c1ccccc1OC2c1cccs1 (stereo not given) has an inhibition at 20 µM of 53.7%.
With c1ccc2c(c1)OC(c1cccc3ccccc13)c1ccccc1-2 (stereo not given) the inhibition at 20 µM was 34%.
COc1ccc(C2Oc3ccccc3-c3ccc(OC)cc32)cc1 (stereo not given) showed an inhibition at 20 µM of 44.7%.
COc1ccc2c(c1)-c1ccccc1OC2c1ccc(SC)cc1 (stereo not given) showed an inhibition at 20 µM of 39.7%.
Compound COc1ccc(C2Oc3cc(C)ccc3-c3ccccc32)cc1 (stereo not given) has an inhibition at 20 µM of 38.1%.
Work on COc1ccc(C2Oc3ccc(Br)cc3-c3ccccc32)cc1 (stereo not given) yielded an inhibition at 20 µM of 36.1%.
With COc1ccc2c(c1)-c1ccccc1OC2c1ccccc1 (stereo not given) the inhibition at 20 µM was 31.8%.
With COc1ccc2c(c1)-c1ccccc1OC2c1cccc(C)c1 (stereo not given) the inhibition at 20 µM was 42.3%.
Work on COc1ccc2c(c1)-c1ccccc1OC2c1ccccc1C (stereo not given) yielded an inhibition at 20 µM of 66%.
With COc1cccc(C2Oc3ccccc3-c3cc(OC)ccc32)c1 (stereo not given) the inhibition at 20 µM was 57%.

Tested on: MCF7
Assay: Antiproliferative activity against human MCF7 cells assessed as inhibition of cell viability at 20 uM after 72 hrs by CCK-8 assay relative to control
Type: functional
Conditions: not given
In the case of COc1ccc2c(c1)-c1ccccc1OC2c1cccs1 (stereo not given), the inhibition at 20 µM was 53.1%.
With c1ccc2c(c1)OC(c1cccc3ccccc13)c1ccccc1-2 (stereo not given) the inhibition at 20 µM was 26.4%.
Compound COc1ccc(C2Oc3ccccc3-c3ccc(OC)cc32)cc1 (stereo not given) has an inhibition at 20 µM of 45.5%.
Compound COc1ccc2c(c1)-c1ccccc1OC2c1ccc(SC)cc1 (stereo not given) has an inhibition at 20 µM of 41.4%.
COc1ccc(C2Oc3cc(C)ccc3-c3ccccc32)cc1 (stereo not given) showed an inhibition at 20 µM of 30.3%.
With COc1ccc(C2Oc3ccc(Br)cc3-c3ccccc32)cc1 (stereo not given) the inhibition at 20 µM was 26.6%.
With COc1ccc2c(c1)-c1ccccc1OC2c1ccccc1 (stereo not given) the inhibition at 20 µM was 25.6%.
COc1ccc2c(c1)-c1ccccc1OC2c1cccc(C)c1 (stereo not given) gave an inhibition at 20 µM of 33.8%.
Compound COc1ccc2c(c1)-c1ccccc1OC2c1ccccc1C (stereo not given) has an inhibition at 20 µM of 69.7%.
COc1cccc(C2Oc3ccccc3-c3cc(OC)ccc32)c1 (stereo not given) gave an inhibition at 20 µM of 69.4%.

Tested on: not listed separately
Assay: Selectivity index, ratio of IC50 for human MCF-10A cells to IC50 for human MCF-7 cells
Conditions: not given
In the case of COc1ccc2c(c1)-c1ccccc1OC2c1ccccc1OC (stereo not given), the “Ratio IC50” value was 6.9.
With COc1ccc2c(c1)-c1ccccc1OC2c1ccccc1C (stereo not given) the “Ratio IC50” value was 4.8.
With COc1ccc2c(c1)-c1ccccc1OC2c1cccc(OC)c1OC (stereo not given) the “Ratio IC50” value was 3.15.
For COc1cccc(C2Oc3ccccc3-c3cc(OC)c(OC)cc32)c1 (stereo not given), the “Ratio IC50” value was 6.33.
For COc1cccc(C2Oc3ccccc3-c3cc(OC)ccc32)c1 (stereo not given), the “Ratio IC50” value was 5.88.

Tested on: BGC-823
Assay: Antiproliferative activity against human BGC-823 cells assessed as inhibition of cell viability after 72 hrs by CCK-8 assay
Type: functional, cell-based
Conditions: BGC-823, 72 h
For COc1ccc2c(c1)-c1ccccc1OC2c1ccccc1OC (stereo not given), the pIC50 was 4.58.
COc1ccc2c(c1)-c1ccccc1OC2c1ccccc1C (stereo not given) showed a pIC50 of 5.07.
For COc1ccc2c(c1)-c1ccccc1OC2c1cccc(OC)c1OC (stereo not given), the pIC50 was 5.03.
With COc1cccc(C2Oc3ccccc3-c3cc(OC)c(OC)cc32)c1 (stereo not given) the pIC50 was 5.05.
In the case of COc1cccc(C2Oc3ccccc3-c3cc(OC)ccc32)c1 (stereo not given), the pIC50 was 4.88.

Tested on: BGC-823
Assay: Antiproliferative activity against human BGC-823 cells assessed as inhibition of cell viability at 20 uM after 72 hrs by CCK-8 assay relative to control
Type: functional
Conditions: not given
COc1ccc2c(c1)-c1ccccc1OC2c1cccs1 (stereo not given) showed an inhibition at 20 µM of 28.2%.
In the case of c1ccc2c(c1)OC(c1cccc3ccccc13)c1ccccc1-2 (stereo not given), the inhibition at 20 µM was 26.1%.
In the case of COc1ccc(C2Oc3ccccc3-c3ccc(OC)cc32)cc1 (stereo not given), the inhibition at 20 µM was 47.1%.
Compound COc1ccc2c(c1)-c1ccccc1OC2c1ccc(SC)cc1 (stereo not given) has an inhibition at 20 µM of 39.4%.
Compound COc1ccc(C2Oc3cc(C)ccc3-c3ccccc32)cc1 (stereo not given) has an inhibition at 20 µM of 32.9%.
Compound COc1ccc(C2Oc3ccc(Br)cc3-c3ccccc32)cc1 (stereo not given) has an inhibition at 20 µM of 37.8%.
COc1ccc2c(c1)-c1ccccc1OC2c1ccccc1 (stereo not given) showed an inhibition at 20 µM of 30.5%.
With COc1ccc2c(c1)-c1ccccc1OC2c1cccc(C)c1 (stereo not given) the inhibition at 20 µM was 32%.
COc1ccc2c(c1)-c1ccccc1OC2c1ccccc1C (stereo not given) gave an inhibition at 20 µM of 64.2%.
With COc1cccc(C2Oc3ccccc3-c3cc(OC)ccc32)c1 (stereo not given) the inhibition at 20 µM was 51.9%.

Tested on: A549
Assay: Antiproliferative activity against human A549 cells assessed as inhibition of cell viability at 20 uM after 72 hrs by CCK-8 assay relative to control
Type: functional
Conditions: not given
Work on COc1ccc2c(c1)-c1ccccc1OC2c1cccs1 (stereo not given) yielded an inhibition at 20 µM of 43.9%.
c1ccc2c(c1)OC(c1cccc3ccccc13)c1ccccc1-2 (stereo not given) gave an inhibition at 20 µM of 31.5%.
COc1ccc(C2Oc3ccccc3-c3ccc(OC)cc32)cc1 (stereo not given) gave an inhibition at 20 µM of 43.6%.
COc1ccc2c(c1)-c1ccccc1OC2c1ccc(SC)cc1 (stereo not given) gave an inhibition at 20 µM of 31.8%.
In the case of COc1ccc(C2Oc3cc(C)ccc3-c3ccccc32)cc1 (stereo not given), the inhibition at 20 µM was 22.6%.
COc1ccc(C2Oc3ccc(Br)cc3-c3ccccc32)cc1 (stereo not given) showed an inhibition at 20 µM of 28.9%.
Compound COc1ccc2c(c1)-c1ccccc1OC2c1ccccc1 (stereo not given) has an inhibition at 20 µM of 32%.
In the case of COc1ccc2c(c1)-c1ccccc1OC2c1cccc(C)c1 (stereo not given), the inhibition at 20 µM was 34.4%.
In the case of COc1ccc2c(c1)-c1ccccc1OC2c1ccccc1C (stereo not given), the inhibition at 20 µM was 60.9%.
COc1cccc(C2Oc3ccccc3-c3cc(OC)ccc32)c1 (stereo not given) gave an inhibition at 20 µM of 56.3%.

Tested on: PC-3
Assay: Antiproliferative activity against human PC-3 cells assessed as inhibition of cell viability after 72 hrs by CCK-8 assay
Type: functional, cell-based
Conditions: PC-3, 72 h
With COc1ccc2c(c1)-c1ccccc1OC2c1ccccc1OC (stereo not given) the pIC50 was 4.67.
With COc1ccc2c(c1)-c1ccccc1OC2c1ccccc1C (stereo not given) the pIC50 was 5.02.
In the case of COc1ccc2c(c1)-c1ccccc1OC2c1cccc(OC)c1OC (stereo not given), the pIC50 was 5.10.
Compound COc1cccc(C2Oc3ccccc3-c3cc(OC)c(OC)cc32)c1 (stereo not given) has a pIC50 of 4.99.
Work on COc1cccc(C2Oc3ccccc3-c3cc(OC)ccc32)c1 (stereo not given) yielded a pIC50 of 4.85.

Tested on: A549
Assay: Antiproliferative activity against human A549 cells assessed as inhibition of cell viability after 72 hrs by CCK-8 assay
Type: functional, cell-based
Conditions: A549, 72 h
Compound COc1ccc2c(c1)-c1ccccc1OC2c1ccccc1OC (stereo not given) has a pIC50 of 4.63.
With COc1ccc2c(c1)-c1ccccc1OC2c1ccccc1C (stereo not given) the pIC50 was 5.07.
Compound COc1ccc2c(c1)-c1ccccc1OC2c1cccc(OC)c1OC (stereo not given) has a pIC50 of 4.77.
For COc1cccc(C2Oc3ccccc3-c3cc(OC)c(OC)cc32)c1 (stereo not given), the pIC50 was 4.93.
With COc1cccc(C2Oc3ccccc3-c3cc(OC)ccc32)c1 (stereo not given) the pIC50 was 4.77.
